# Measured values taken from PubChem BioAssay (NCI).
#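 All cell lines were grown in 96-well plates and treated with compound for 48 hours. GI50: concentration for 50% inhibition of growth. TGI marks complete inhibition of growth.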
# What was measured:
# Assay in all cases: NCI-60 cell line screen, 48 h
# DU-145 prostate = system: DU-145 prostate
# HT29 colon = system: HT29 colon
# MOLT-4 leukemia = system: MOLT-4 leukemia
# SF-295 CNS = system: SF-295 CNS
# UACC-257 melanoma = system: UACC-257 melanoma
# LOX IMVI melanoma = system: LOX IMVI melanoma
# CAKI-1 renal = system: CAKI-1 renal
# PC-3 prostate = system: PC-3 prostate
# HOP-62 NSCLC = system: HOP-62 NSCLC
# SR leukemia = system: SR leukemia
# HS 578T breast = system: HS 578T breast
# RPMI-8226 leukemia = system: RPMI-8226 leukemia
# NCI-H522 lung = system: NCI-H522 lung
# NCI-H226 lung = system: NCI-H226 lung
# BT-549 breast = system: BT-549 breast
# OVCAR-5 ovarian = system: OVCAR-5 ovarian
# K-562 leukemia = system: K-562 leukemia
# SK-MEL-2 melanoma = system: SK-MEL-2 melanoma
# OVCAR-3 ovarian = system: OVCAR-3 ovarian
# A549 NSCLC = system: A549 NSCLC
# CCRF-CEM leukemia = system: CCRF-CEM leukemia
# MDA-MB-468 breast = system: MDA-MB-468 breast
# OVCAR-4 ovarian = system: OVCAR-4 ovarian
# NCI/ADR-RES ovarian = system: NCI/ADR-RES ovarian
# HL-60(TB) leukemia = system: HL-60(TB) leukemia
# KM12 colon = system: KM12 colon
# HCC-2998 colon = system: HCC-2998 colon
# HCT-116 colon = system: HCT-116 colon
# SK-MEL-28 melanoma = system: SK-MEL-28 melanoma
smiles,measurement,setting,value
N#Cc1cc(-c2ccc3ncnc(N4CCc5cc(F)c(Cl)cc54)c3c2)cnc1N,TGI,DU-145 prostate,> 100 µM
same,GI50,HT29 colon,2.65 µM
same,TGI,HT29 colon,> 100 µM
same,GI50,MOLT-4 leukemia,1.63 µM
same,TGI,MOLT-4 leukemia,11.4 µM
same,GI50,SF-295 CNS,3.23 µM
same,TGI,SF-295 CNS,> 100 µM
same,GI50,UACC-257 melanoma,4.45 µM
same,TGI,UACC-257 melanoma,> 100 µM
same,GI50,LOX IMVI melanoma,1.6 µM
same,TGI,LOX IMVI melanoma,16.9 µM
same,GI50,CAKI-1 renal,0.786 µM
same,TGI,CAKI-1 renal,> 100 µM
same,GI50,PC-3 prostate,1.75 µM
same,TGI,PC-3 prostate,> 100 µM
same,GI50,HOP-62 NSCLC,3.75 µM
same,TGI,HOP-62 NSCLC,> 100 µM
same,GI50,SR leukemia,1.01 µM
same,TGI,SR leukemia,10 µM
same,GI50,HS 578T breast,0.633 µM
same,TGI,HS 578T breast,7.71 µM
same,GI50,RPMI-8226 leukemia,0.992 µM
same,TGI,RPMI-8226 leukemia,> 100 µM
same,GI50,NCI-H522 lung,3.34 µM
same,TGI,NCI-H522 lung,> 100 µM
same,GI50,NCI-H226 lung,1.38 µM
same,TGI,NCI-H226 lung,> 100 µM
same,GI50,BT-549 breast,1.23 µM
same,TGI,BT-549 breast,32.6 µM
same,GI50,OVCAR-5 ovarian,5.21 µM
same,TGI,OVCAR-5 ovarian,> 100 µM
same,GI50,K-562 leukemia,3.23 µM
same,TGI,K-562 leukemia,> 100 µM
same,GI50,SK-MEL-2 melanoma,17.1 µM
same,TGI,SK-MEL-2 melanoma,> 100 µM
same,GI50,OVCAR-3 ovarian,1.47 µM
same,TGI,OVCAR-3 ovarian,> 100 µM
same,GI50,A549 NSCLC,1.88 µM
same,TGI,A549 NSCLC,> 100 µM
same,GI50,CCRF-CEM leukemia,0.575 µM
same,TGI,CCRF-CEM leukemia,> 100 µM
same,GI50,MDA-MB-468 breast,0.227 µM
same,TGI,MDA-MB-468 breast,0.88 µM
same,GI50,OVCAR-4 ovarian,3.7 µM
same,TGI,OVCAR-4 ovarian,> 100 µM
same,GI50,NCI/ADR-RES ovarian,2.41 µM
same,TGI,NCI/ADR-RES ovarian,> 100 µM
same,GI50,HL-60(TB) leukemia,0.422 µM
same,TGI,HL-60(TB) leukemia,> 100 µM
same,GI50,KM12 colon,15.9 µM
same,TGI,KM12 colon,> 100 µM
same,GI50,HCC-2998 colon,2.07 µM
same,TGI,HCC-2998 colon,> 100 µM
same,GI50,HCT-116 colon,2.11 µM
same,TGI,HCT-116 colon,10.4 µM
same,GI50,SK-MEL-28 melanoma,2.81 µM
same,TGI,SK-MEL-28 melanoma,> 100 µM
